# Test results: ChEMBL document CHEMBL4393671, “Design of a Cyclin G Associated Kinase (GAK)/Epidermal Growth Factor Receptor (EGFR) Inhibitor Set to Interrogate the Relationship of EGFR and GAK in Chordoma” (J Med Chem, 2019)
# The source made the active and inactive calls. No cut-off for these calls is given here.
# Assays:
# [1] = biological target: T1, Cyclin-G-associated kinase (Homo sapiens) (UniProt O14976); assay: Binding affinity to wild-type human partial length GAK (G13 to Y338 residues) expressed in bacterial expression system at 1 uM by Kinomescan method relative to control
# T1 sequence (whole entry): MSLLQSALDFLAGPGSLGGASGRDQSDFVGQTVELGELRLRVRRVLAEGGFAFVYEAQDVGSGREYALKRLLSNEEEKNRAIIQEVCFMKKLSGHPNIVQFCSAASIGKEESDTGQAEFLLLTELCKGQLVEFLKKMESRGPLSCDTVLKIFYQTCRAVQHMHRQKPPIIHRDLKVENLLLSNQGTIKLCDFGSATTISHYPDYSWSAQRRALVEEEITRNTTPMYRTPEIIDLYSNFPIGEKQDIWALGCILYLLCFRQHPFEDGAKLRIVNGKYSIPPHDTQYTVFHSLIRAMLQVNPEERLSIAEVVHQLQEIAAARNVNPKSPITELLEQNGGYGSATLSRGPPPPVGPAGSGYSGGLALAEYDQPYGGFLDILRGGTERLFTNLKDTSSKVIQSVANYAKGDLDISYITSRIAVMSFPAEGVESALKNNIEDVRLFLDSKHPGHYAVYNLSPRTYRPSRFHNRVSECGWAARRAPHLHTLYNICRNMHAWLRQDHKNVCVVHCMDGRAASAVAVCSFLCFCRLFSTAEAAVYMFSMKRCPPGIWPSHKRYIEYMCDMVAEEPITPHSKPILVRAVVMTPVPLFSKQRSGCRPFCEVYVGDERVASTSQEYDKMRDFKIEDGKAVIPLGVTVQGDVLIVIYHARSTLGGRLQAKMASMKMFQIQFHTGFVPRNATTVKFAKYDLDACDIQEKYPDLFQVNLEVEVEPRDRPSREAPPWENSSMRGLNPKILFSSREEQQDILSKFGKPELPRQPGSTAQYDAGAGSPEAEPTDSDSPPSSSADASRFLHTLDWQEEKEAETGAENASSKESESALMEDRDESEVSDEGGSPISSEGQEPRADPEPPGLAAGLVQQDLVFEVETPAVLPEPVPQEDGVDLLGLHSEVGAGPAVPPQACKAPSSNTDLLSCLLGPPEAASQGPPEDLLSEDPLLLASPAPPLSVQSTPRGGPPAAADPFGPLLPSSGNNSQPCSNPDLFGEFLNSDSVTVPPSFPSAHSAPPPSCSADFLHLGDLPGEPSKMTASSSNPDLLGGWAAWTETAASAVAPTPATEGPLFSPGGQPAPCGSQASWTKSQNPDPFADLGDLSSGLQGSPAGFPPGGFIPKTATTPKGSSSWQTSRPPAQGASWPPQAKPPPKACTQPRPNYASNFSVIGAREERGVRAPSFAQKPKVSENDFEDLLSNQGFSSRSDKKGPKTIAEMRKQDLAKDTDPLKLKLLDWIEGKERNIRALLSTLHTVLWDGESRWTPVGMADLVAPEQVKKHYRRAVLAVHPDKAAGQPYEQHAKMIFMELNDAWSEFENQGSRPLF
# cells [2] = format: functional, cell-based; settings: Homo sapiens, 72 h
# Description: Antiproliferative activity against human UCH14 cells measured after 72 hrs by alamar blue assay
# cells [3] = format: functional, cell-based; settings: Homo sapiens, 72 h; remark: listed apart in the source
# Description: Antiproliferative activity against human UCH7 cells measured after 72 hrs by alamar blue assay
# cells [4] = format: functional, cell-based; settings: Homo sapiens, 72 h; remark: listed apart in the source
# Description: Antiproliferative activity against human UCH12 cells measured after 72 hrs by alamar blue assay
# cells [5] = format: functional, cell-based; settings: Homo sapiens, UCH1, 72 h
# Description: Antiproliferative activity against human UCH1 cells measured after 72 hrs by alamar blue assay
# cells [6] = format: functional, cell-based; settings: Homo sapiens, 72 h; remark: listed apart in the source
# Description: Antiproliferative activity against human CH22 cells measured after 72 hrs by alamar blue assay
# [7] = biological target: T1, Cyclin-G-associated kinase (Homo sapiens); assay: Inhibition of tracer 5 binding to human N-terminal nano luciferase-fused GAK expressed in HEK293 cells at 5 uM measured after 2 hrs by nanoBRET assay relative to control; format: cell-based
# cells [8] = format: ADME, cell-based; settings: Homo sapiens, WS1, 72 h
# Description: Cytotoxicity against human WS1 cells measured after 72 hrs by alamar blue assay
# cells [9] = format: functional, cell-based; settings: Homo sapiens, 72 h; remark: listed apart in the source
# Description: Antiproliferative activity against human UMCHOR1 cells measured after 72 hrs by alamar blue assay
# cells [10] = format: functional, cell-based; settings: Homo sapiens, UCH2, 72 h
# Description: Antiproliferative activity against human UCH2 cells measured after 72 hrs by alamar blue assay
# [11] = biological target: Serine/threonine-protein kinase SIK2 (Homo sapiens, UniProt Q9H0K1); assay: Binding affinity to wild-type human full length SIK2 (M1 to N926 residues) expressed in bacterial expression system by Kinomescan method
# [12] = biological target: Tyrosine-protein kinase ABL1 (Homo sapiens, UniProt P00519); assay: Binding affinity to wild-type human ABL1 (S229 to K512 residues) expressed in mammalian expression system by Kinomescan method
# [13] = biological target: Tyrosine-protein kinase ABL2 (Homo sapiens, UniProt P42684); assay: Binding affinity to wild-type human ABL2 (A248 to G542 residues) expressed in bacterial expression system by Kinomescan method
# [14] = biological target: Proto-oncogene tyrosine-protein kinase receptor Ret (Homo sapiens, UniProt P07949); assay: Binding affinity to wild-type human partial length RET (E713 to D1014 residues) expressed in bacterial expression system by Kinomescan method
# Activated CDC42 kinase 1 = Activated CDC42 kinase 1 (Homo sapiens, UniProt Q07912); assay: Binding affinity to wild-type human partial length TNK2 (S159 to D474 residues) expressed in bacterial expression system by Kinomescan method
# [15] = biological target: T2, Serine/threonine-protein kinase D2 (Homo sapiens, UniProt Q9BZL6); assay: Binding affinity to wild-type human partial length PRKD2 (A519 to E838 residues) expressed in bacterial expression system by Kinomescan method
# T2 sequence (Q9BZL6 whole entry): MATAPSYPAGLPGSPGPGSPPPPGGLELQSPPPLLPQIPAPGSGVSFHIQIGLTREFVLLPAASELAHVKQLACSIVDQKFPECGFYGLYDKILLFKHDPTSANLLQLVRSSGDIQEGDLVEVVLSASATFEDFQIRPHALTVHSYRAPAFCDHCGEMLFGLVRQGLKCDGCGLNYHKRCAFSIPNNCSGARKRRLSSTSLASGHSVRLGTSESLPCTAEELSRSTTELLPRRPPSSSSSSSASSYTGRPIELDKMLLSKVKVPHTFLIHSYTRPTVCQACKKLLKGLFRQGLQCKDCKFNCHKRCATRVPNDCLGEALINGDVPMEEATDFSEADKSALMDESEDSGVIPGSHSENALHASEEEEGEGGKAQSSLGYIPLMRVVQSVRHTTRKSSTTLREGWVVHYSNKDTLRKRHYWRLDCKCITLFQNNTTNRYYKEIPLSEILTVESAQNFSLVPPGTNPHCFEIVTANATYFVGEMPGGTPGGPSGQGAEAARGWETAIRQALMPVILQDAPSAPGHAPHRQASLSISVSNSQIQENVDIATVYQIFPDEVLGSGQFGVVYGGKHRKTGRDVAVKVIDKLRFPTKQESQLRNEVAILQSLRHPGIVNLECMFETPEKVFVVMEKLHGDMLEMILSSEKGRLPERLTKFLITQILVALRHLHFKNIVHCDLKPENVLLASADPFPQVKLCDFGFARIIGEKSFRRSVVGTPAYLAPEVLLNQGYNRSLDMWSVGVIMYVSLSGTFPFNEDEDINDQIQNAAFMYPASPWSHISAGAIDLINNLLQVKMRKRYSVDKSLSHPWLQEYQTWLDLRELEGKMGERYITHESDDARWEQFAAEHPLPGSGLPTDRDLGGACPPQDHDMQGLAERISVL
# Homo sapiens = organism: Homo sapiens; assay: Selectivity ratio of Kd for wild-type human partial length EGFR (R669 to V1011 residues) expressed in bacterial expression system to kd for wild-type human partial length GAK (G13 to Y338 residues) expressed in bacterial expression system
# [16] = biological target: T3, Epidermal growth factor receptor (Homo sapiens, UniProt P00533);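 for IC50: human A431 cells pretreated 90 min, then EGF stimulated, sandwich ELISA measured decrease in EGF-induced receptor autophosphorylation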;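 for Kd: KINOMEscan competition binding with recombinant partial wild-type human EGFR (residues R669–V1011) produced in bacteria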
# Description: Binding affinity to wild-type human partial length EGFR (R669 to V1011 residues) expressed in bacterial expression system by Kinomescan method
# [17] = biological target: Nucleoside diphosphate kinase B (Homo sapiens) (UniProt P22392); assay: Binding affinity to NME2 in human SUM159 cell lysates by multiplexed inhibitor bead profiling-based LC-MS/MS analysis; format: subcellular; settings: Lysate
# [18] = biological target: Aurora kinase B (Homo sapiens) (UniProt Q96GD4); assay: Binding affinity to AURKB in human SUM159 cell lysates by multiplexed inhibitor bead profiling-based LC-MS/MS analysis; format: subcellular; settings: Lysate
# [19] = biological target: T4, Dual specificity mitogen-activated protein kinase kinase 5 (Homo sapiens) (UniProt Q13163); assay: Binding affinity to MAP2K5 in human SUM159 cell lysates by multiplexed inhibitor bead profiling-based LC-MS/MS analysis; format: subcellular; settings: Lysate
# T4 sequence (whole entry): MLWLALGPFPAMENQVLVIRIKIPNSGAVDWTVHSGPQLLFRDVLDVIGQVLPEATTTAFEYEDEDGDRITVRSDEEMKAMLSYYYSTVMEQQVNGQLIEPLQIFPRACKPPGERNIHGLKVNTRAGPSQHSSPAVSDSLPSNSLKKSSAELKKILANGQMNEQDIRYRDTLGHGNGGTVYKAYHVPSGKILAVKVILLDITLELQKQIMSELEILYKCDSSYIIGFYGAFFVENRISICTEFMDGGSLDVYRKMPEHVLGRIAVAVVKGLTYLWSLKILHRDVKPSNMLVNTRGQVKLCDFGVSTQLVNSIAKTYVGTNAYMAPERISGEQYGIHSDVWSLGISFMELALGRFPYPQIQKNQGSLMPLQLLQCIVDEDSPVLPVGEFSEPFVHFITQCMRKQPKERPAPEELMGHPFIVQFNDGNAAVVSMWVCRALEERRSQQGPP
# [20] = biological target: T5, Cyclin-G-associated kinase (Homo sapiens, UniProt O14976); assay: Binding affinity to wild-type human partial length GAK (G13 to Y338 residues) expressed in bacterial expression system by Kinomescan method
# T5 sequence (O14976 whole entry): T1 sequence (whole entry)
# [21] = biological target: T3, Epidermal growth factor receptor; format: cell-based
# Description: Inhibition of EGFR in human A431 cells assessed as reduction in EGF-stimulated EGFR autophosphorylation preincuabted for 90 mins followed by EGF-stimulation by sandwich-ELISA
# T3 sequence (P00533 whole entry, the tested form may be a part): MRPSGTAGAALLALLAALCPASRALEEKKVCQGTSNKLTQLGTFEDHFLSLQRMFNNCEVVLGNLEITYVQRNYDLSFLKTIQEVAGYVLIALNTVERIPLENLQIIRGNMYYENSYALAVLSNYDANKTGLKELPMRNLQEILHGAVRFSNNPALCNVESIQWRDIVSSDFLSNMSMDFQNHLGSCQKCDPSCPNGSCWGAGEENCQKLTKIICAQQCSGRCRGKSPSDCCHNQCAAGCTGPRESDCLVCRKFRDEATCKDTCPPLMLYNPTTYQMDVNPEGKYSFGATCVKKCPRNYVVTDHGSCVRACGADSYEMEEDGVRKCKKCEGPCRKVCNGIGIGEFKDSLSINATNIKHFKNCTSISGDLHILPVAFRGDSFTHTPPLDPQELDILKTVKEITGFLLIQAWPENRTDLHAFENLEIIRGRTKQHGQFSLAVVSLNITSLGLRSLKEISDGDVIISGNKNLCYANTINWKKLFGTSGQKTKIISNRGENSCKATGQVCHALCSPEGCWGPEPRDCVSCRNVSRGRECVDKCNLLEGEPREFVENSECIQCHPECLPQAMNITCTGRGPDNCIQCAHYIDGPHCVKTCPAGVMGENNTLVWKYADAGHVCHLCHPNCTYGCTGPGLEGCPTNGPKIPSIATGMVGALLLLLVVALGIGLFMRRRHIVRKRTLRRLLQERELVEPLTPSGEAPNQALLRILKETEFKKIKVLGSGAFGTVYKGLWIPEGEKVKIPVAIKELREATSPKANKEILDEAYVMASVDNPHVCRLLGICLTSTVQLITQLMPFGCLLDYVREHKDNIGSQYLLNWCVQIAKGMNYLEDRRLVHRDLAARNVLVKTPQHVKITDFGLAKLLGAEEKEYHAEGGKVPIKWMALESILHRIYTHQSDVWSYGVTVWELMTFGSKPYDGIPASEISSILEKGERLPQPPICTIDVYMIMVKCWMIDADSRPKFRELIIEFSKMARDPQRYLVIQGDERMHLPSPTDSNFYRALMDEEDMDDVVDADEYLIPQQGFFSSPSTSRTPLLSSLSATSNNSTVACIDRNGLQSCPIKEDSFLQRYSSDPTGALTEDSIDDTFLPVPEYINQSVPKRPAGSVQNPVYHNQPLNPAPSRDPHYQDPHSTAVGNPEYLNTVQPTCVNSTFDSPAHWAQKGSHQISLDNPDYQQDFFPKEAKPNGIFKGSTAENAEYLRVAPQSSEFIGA
# Chain of Proto-oncogene tyrosine-protein kinase receptor Ret (P07949 whole entry, the tested form may be a part): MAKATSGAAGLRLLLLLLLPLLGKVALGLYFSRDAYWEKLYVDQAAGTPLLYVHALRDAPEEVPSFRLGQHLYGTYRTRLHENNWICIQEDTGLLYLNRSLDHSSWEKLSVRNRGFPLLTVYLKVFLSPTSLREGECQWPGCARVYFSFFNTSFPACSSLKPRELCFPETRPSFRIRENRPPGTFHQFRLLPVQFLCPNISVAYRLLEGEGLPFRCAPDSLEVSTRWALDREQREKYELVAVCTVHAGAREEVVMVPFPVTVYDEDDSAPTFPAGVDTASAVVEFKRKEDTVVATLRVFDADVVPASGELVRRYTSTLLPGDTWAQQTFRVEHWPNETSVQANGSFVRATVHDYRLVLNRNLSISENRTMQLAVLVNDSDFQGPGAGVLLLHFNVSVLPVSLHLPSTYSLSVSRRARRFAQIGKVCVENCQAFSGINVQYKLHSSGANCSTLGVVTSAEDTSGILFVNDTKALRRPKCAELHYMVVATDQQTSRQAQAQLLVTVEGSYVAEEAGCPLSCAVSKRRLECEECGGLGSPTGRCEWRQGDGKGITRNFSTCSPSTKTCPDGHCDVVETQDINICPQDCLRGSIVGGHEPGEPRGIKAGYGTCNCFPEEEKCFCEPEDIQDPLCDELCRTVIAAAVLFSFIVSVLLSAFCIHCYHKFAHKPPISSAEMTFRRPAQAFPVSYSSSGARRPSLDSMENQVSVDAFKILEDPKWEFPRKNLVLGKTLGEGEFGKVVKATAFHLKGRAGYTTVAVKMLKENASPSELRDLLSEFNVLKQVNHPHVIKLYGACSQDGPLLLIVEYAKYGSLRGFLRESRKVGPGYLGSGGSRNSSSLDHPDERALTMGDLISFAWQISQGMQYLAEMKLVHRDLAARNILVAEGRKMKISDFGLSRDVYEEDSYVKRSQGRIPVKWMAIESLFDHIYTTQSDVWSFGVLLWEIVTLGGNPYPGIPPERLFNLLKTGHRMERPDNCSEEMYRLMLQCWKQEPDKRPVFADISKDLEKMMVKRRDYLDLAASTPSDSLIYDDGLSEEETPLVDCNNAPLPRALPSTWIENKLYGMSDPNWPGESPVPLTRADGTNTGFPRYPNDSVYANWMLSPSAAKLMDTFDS
# Chain of Tyrosine-protein kinase ABL2 (P42684 whole entry, the tested form may be a part): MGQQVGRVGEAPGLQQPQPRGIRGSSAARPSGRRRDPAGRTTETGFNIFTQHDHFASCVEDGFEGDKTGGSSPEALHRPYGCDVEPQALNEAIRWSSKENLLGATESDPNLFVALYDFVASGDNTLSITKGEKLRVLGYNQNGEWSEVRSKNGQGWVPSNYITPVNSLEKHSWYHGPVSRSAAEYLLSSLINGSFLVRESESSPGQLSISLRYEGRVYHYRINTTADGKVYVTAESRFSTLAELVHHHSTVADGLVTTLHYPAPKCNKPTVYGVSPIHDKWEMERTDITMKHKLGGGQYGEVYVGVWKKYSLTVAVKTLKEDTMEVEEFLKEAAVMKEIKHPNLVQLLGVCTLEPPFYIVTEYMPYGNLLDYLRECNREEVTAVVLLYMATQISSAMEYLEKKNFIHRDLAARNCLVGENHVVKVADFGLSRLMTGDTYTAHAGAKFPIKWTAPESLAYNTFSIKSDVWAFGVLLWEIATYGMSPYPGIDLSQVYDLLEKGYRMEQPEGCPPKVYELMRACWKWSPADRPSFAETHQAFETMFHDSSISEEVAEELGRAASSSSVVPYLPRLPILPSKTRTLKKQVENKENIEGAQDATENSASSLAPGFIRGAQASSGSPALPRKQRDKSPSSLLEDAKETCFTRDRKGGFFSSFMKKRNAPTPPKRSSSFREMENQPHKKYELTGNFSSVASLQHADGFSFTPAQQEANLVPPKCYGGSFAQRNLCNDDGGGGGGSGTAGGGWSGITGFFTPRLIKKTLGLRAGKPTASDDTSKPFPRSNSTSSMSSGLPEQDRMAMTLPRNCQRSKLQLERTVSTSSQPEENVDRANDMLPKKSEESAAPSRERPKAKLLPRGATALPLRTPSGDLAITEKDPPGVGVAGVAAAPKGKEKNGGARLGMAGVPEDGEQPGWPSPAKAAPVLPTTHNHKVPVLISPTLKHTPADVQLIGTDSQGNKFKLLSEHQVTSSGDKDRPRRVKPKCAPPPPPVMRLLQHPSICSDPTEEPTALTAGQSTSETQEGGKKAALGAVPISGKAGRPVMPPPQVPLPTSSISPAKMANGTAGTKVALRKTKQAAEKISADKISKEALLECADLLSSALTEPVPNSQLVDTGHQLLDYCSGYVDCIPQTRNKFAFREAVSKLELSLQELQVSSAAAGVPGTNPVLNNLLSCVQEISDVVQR
# Chain of Nucleoside diphosphate kinase B (Homo sapiens) (P22392 whole entry): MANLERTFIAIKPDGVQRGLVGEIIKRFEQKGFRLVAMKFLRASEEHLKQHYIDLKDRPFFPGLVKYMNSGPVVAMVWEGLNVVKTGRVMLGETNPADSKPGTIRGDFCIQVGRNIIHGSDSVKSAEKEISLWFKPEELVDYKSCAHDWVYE
# Chain of Tyrosine-protein kinase ABL1 (P00519 whole entry, the tested form may be a part): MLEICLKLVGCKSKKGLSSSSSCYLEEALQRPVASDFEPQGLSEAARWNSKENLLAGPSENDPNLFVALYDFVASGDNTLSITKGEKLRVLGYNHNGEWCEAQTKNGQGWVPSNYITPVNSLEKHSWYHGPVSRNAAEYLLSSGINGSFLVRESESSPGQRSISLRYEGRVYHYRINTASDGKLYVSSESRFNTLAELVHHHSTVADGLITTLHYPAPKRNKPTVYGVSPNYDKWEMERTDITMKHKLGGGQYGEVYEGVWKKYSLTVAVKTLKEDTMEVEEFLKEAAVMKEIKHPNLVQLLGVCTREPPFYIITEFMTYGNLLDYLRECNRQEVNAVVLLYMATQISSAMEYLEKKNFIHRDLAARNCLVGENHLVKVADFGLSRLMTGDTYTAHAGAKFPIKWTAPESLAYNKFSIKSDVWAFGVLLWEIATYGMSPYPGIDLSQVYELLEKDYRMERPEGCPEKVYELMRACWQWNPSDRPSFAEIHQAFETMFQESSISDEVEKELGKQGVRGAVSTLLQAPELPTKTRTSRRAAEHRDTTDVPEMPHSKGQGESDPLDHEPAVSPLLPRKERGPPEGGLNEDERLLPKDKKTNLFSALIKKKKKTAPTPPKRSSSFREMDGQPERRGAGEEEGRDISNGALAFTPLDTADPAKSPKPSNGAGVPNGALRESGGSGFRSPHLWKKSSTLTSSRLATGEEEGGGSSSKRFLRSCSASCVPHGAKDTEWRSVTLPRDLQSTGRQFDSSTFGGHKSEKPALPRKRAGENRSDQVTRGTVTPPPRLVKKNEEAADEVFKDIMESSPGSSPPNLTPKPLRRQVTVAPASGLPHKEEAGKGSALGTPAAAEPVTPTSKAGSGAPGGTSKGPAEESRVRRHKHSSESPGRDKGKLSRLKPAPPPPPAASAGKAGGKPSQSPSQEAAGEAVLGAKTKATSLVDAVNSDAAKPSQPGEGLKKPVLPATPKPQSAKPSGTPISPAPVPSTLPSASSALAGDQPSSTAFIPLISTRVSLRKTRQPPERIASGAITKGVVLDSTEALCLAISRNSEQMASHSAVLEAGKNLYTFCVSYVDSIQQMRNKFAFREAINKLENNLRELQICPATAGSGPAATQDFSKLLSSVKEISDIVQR
SMILES,IC50 (cells [2]),IC50 (cells [3]),IC50 (cells [4]),IC50 (cells [5]),IC50 (cells [6]),inhibition [7],IC50 (cells [8]),IC50 (cells [9]),IC50 (cells [10]),Kd [16],further results
CS(=O)(=O)CCNCc1ccc(-c2ccc3ncnc(Nc4ccc(OCc5cccc(F)c5)c(Cl)c4)c3c2)o1 [LAPATINIB],> 50 µM,26 µM,33 µM,3.2 µM,25 µM,0%,13 µM,25 µM,> 50 µM,,Activity [1]: < 50%
COc1cccc(Nc2ncnn3ccc(CN4CC[C@@H](N)[C@H](O)C4)c23)c1 [BMS-690514],,,,0.53 µM,,,,,> 50 µM,0.22 µM,Kd [11]: < 0.225 µM; Kd [12]: < 0.225 µM; Kd [13]: < 0.225 µM; Kd [14]: < 0.225 µM; Kd (Activated CDC42 kinase 1): < 0.225 µM; Kd [15]: < 0.225 µM; Selectivity ratio (Homo sapiens): > 700
COc1cc2nccc(Nc3ccc(OCc4cccc(F)c4)c(Cl)c3)c2cc1OC,7 µM,2.7 µM,5.5 µM,2.6 µM,1 µM,22%,8.6 µM,1.5 µM,2.9 µM,0.032 µM,Activity [17]: Active; Activity [18]: Active; Activity [19]: Active; Kd [20]: > 10 µM; IC50 [21]: 1.7 µM
